Results published in paper PMC11354745, “Discovery of Novel Amino Acids (Analogues)-Substituted Thiophene[3,2-d]pyrimidine Derivatives as Potent HIV-1 Non-Nucleoside Reverse Transcriptase Inhibitors: Design, Synthesis, and Biological Evaluation” (International Journal of Molecular Sciences, 2024).
Read-outs that look alike come from different tables or passages of the source.

Key:
[1] = Cytotoxicity in mock-infected MT-4 cells (MTT method); type: cell-based; settings: human
Experimental: (§1) The antiviral potential and cytotoxic effects of the target compounds were assessed using the MTT assay in MT-4 cells, following established protocols. The HIV-1 (IIIB) strain, single mutant strains (L100I, K103N, Y181C, Y188L and E138K), double mutant strains (F227L + V106A and K103N + Y181C) and MT-4 cells were provided by the Rega Institute of Medicine at the University of Leuven, Belgium. These viral strains were propagated in MT-4 cells. The MT-4 cells were cultured in RPMI-1640 medium supplemented with 20 mM HEPES buffer (Life Technologies, Grand Island, NY, USA), 10% (v/v) heat-inactivated fetal calf serum (FCS), 2 mM L-glutamine, 0.1% sodium bicarbonate, and 20 μg/mL gentamicin. Cultures were maintained at 37 °C in a 5% CO2 atmosphere. The specific experimental procedures are detailed below.
(§2) Initially, concentrated solutions of the test compounds were prepared at 10-fold the final desired concentration and added to triplicate wells in 25 µL aliquots to assess their impacts on both mock and HIV-infected MT-4 cells. Using a Biomek 3000 robot, these were diluted in a 96-well flat-bottomed microplate by mixing with medium, creating a series of 5-fold steps down in concentration. Each test included control groups of untreated infected and mock-infected cells to establish baselines for comparison. We introduced HIV-1 strains, both wild-type (IIIB) and drug-resistant variants harboring mutations L100I, K103N, Y181C, Y188L, E138K and F227L + V106A and the double mutant K103N + Y181C (RES056), at concentrations of 100–300 CCID50, into their respective wells. These strains served to mimic both typical and resistant infections. Additionally, mock-infected wells received an equal volume of culture medium to assess the compounds’ impacts on uninfected cells, thereby determining cytotoxicity. MT-4 cells in the exponential growth phase were pelleted by centrifugation at 1000 rpm for 5 min, after which the supernatant was removed. The cells were resuspended to a density of 6 × 10^5 cells/mL, and 50 µL of this suspension was added to each well. Post-infection, on the fifth day, cell viability in both mock and infected conditions was measured via the MTT assay using a spectrophotometer. The CC50 was identified as the concentration of the compound that caused a 50% reduction in the viability of the mock-infected cells, indicating cytotoxicity. Conversely, the EC50 represented the concentration that provided 50% protection against viral cytopathic effects in infected cells, signifying antiviral potency.

[2] = tested on: HIV-1 double-mutant strain F227L+V106A; test: Anti-HIV activity in MT-4 cells (MTT method), F227L+V106A; type: cell-based; settings: Human immunodeficiency virus 1, MT4, read-out: EC50 F227L/V106A
Description: (§3) All the target compounds were first evaluated for their antiviral activity against HIV-1 wild-type (WT) strain (IIIB) and the double-mutant strain K103N+Y181C (RES056) in the MT-4 cell line, using the MTT method. The potent inhibitors were selected to assess their efficacy against other strains resistant to NNRTIs, including L100I, K103N, Y181C, Y188L, E138K and the double-mutant strain F227L+V106A. The approved drugs NVP, EFV and ETR were selected as reference drugs. The biological evaluation results of the test compounds, presented as EC50 (anti-HIV potency), CC50 (cytotoxicity) and SI (selectivity index, CC50/EC50 ratio), are summarized in Table 1 and Table 2.
as §1, §2

[3] = tested on: HIV-1 Y188L mutant strain; test: Anti-HIV activity in MT-4 cells (MTT method), Y188L; type: cell-based; settings: Human immunodeficiency virus 1, MT4, read-out: EC50 Y188L
Description: as §3, §1, §2

[4] = tested on: HIV-1 E138K mutant strain; test: Anti-HIV activity in MT-4 cells (MTT method), E138K; type: cell-based; settings: Human immunodeficiency virus 1, MT4, read-out: EC50 E138K
Description: as §3, §1, §2

[5] = tested on: HIV-1 wild-type (WT) strain (IIIB); test: Anti-HIV activity in MT-4 cells (MTT method), HIV-1 IIIB; type: cell-based; settings: for EC50: Human immunodeficiency virus 1, IIIB, MT4, read-out: EC50 IIIB; for SI IIIB: selectivity index, ratio CC50/EC50, IIIB
Experimental: (§4) All the target compounds were first evaluated for their antiviral activity against HIV-1 wild-type (WT) strain (IIIB) and the double-mutant strain K103N+Y181C (RES056) in the MT-4 cell line, using the MTT method.
(§5) The antiviral potential and cytotoxic effects of the target compounds were assessed using the MTT assay in MT-4 cells, following established protocols. The HIV-1 (IIIB) strain, single mutant strains (L100I, K103N, Y181C, Y188L and E138K), double mutant strains (F227L + V106A and K103N + Y181C) and MT-4 cells were provided by the Rega Institute of Medicine at the University of Leuven, Belgium. These viral strains were propagated in MT-4 cells. […] The specific experimental procedures are detailed below.
as §2, with “We introduced HIV-1 strains, both wild-type (IIIB) and drug-resistant variants harboring mutations L100I, K103N, Y181C, Y188L, E138K and F227L + V106A and the double mutant K103N + Y181C (RES056), at concentrations of 100–300 CCID50, into their respective wells.” left out, “spectrophotometer.” for “spectrophotometer. The CC50 was identified as the concentration of the compound that caused a 50% reduction in the viability of the mock-infected cells, indicating cytotoxicity. Conversely, the EC50 represented the concentration that provided 50% protection against viral cytopathic effects in infected cells, signifying antiviral potency.”

[6] = tested on: HIV-1 double-mutant strain K103N+Y181C (RES056); test: microbe, parasite or virus in culture; type: cell-based; settings: for EC50: Human immunodeficiency virus 1, MT4, read-out: EC50 RES056; for SI RES056: selectivity index, ratio CC50/EC50, RES056
Experimental: as §4, §5
as §2, with “We introduced HIV-1 strains, both wild-type (IIIB) and drug-resistant variants harboring mutations L100I, K103N, Y181C, Y188L, E138K and F227L + V106A and the double mutant K103N + Y181C (RES056), at concentrations of 100–300 CCID50, into their respective wells.” left out, “spectrophotometer.” for “spectrophotometer. The CC50 was identified as the concentration of the compound that caused a 50% reduction in the viability of the mock-infected cells, indicating cytotoxicity. Conversely, the EC50 represented the concentration that provided 50% protection against viral cytopathic effects in infected cells, signifying antiviral potency.”

[7] = tested on: HIV-1 L100I mutant strain; test: Anti-HIV activity in MT-4 cells (MTT method), L100I; type: cell-based; settings: Human immunodeficiency virus 1, MT4, read-out: EC50 L100I
Description: as §3, §1, §2

[8] = tested on: HIV-1 K103N mutant strain; test: Anti-HIV activity in MT-4 cells (MTT method), K103N; type: cell-based; settings: Human immunodeficiency virus 1, MT4, read-out: EC50 K103N
Description: as §3, §1, §2

[9] = tested on: HIV-1 Y181C mutant strain; test: Anti-HIV activity in MT-4 cells (MTT method), Y181C; type: cell-based; settings: Human immunodeficiency virus 1, MT4, read-out: EC50 Y181C
Description: as §3, §1, §2

[10] = reduces viability of mock-infected MT-4 cell cultures by 50%, MTT method, read-out: CC50

Compound: O=C1Nc2ccc(Cl)cc2[C@@](C#CC2CC2)(C(F)(F)F)O1 [EFV, efavirenz, reference compound]
- CC50 at 5 days [1, 10]: > 6.35 µM
- EC50 [2]: 0.329 ± 0.228 µM
- EC50 [3]: 0.28 ± 0.091 µM
- EC50 [4]: 0.01 ± 0.005 µM
- EC50 [5]: 0.006 ± 0.002 µM
- EC50 [6]: 0.698 ± 0.449 µM
- EC50 [7]: 0.054 ± 0.036 µM
- EC50 [8]: 0.132 ± 0.05 µM
- EC50 [9]: 0.008 ± 0.001 µM

Compound: CNCC(=O)Nc1ccc(Nc2nc(Oc3c(C)cc(C#N)cc3C)c3sccc3n2)cc1 [5j]
- melting point: 171 to 173 °C
- CC50 at 5 days ([1]; CC50): 17.3 ± 11.5 µM
- EC50 [5]: 0.242 ± 0.065 µM
- SI IIIB [5]: 72
- EC50 [6]: > 17.3 µM
- SI RES056 [6]: <1

Compound: Cc1cc(C#N)cc(C)c1Oc1nc(Nc2ccc(NC(=O)[C@@H](NC(=O)OC(C)(C)C)C(C)C)cc2)nc2ccsc12 [5f]
- melting point: 158 to 160 °C
- CC50 at 5 days ([1]; CC50): > 213 µM
- EC50 [5]: 0.848 ± 0.247 µM
- SI IIIB [5]: >251
- EC50 [6]: > 213 µM

Compound: Cc1cc(C#N)cc(C)c1Oc1nc(Nc2ccc(NC(=O)[C@@H](CC(C)C)NC(=O)OC(C)(C)C)cc2)nc2ccsc12 [5m]
- CC50 at 5 days ([1]; CC50): > 208 µM
- EC50 [5]: 9.87 ± 1.18 µM
- SI IIIB [5]: >21
- EC50 [6]: > 208 µM

Compound: Cc1cc(C#N)cc(C)c1Oc1nc(Nc2ccc(NC(=O)C(Cc3c[nH]c4ccccc34)NC(=O)OC(C)(C)C)cc2)nc2ccsc12 (centres unmarked) [5a]
- melting point: 205 to 208 °C
- CC50 at 5 days ([1]; CC50): > 186 µM
- EC50 [5]: 0.94 ± 0.278 µM
- SI IIIB [5]: >197
- EC50 [6]: > 186 µM

Compound: Cc1cc(C#N)cc(C)c1Oc1nc(Nc2ccc(NC(=O)C3CCCN3C(=O)OC(C)(C)C)cc2)nc2ccsc12 (centres unmarked) [5g]
- melting point: 236 to 238 °C
- CC50 at 5 days ([1]; CC50): 191 µM
- EC50 [5]: 0.924 ± 0.242 µM
- SI IIIB [5]: 206
- EC50 [6]: > 191 µM
- SI RES056 [6]: <1

Compound: Cc1ccnc2c1NC(=O)c1cccnc1N2C1CC1 [NVP, nevirapine, reference compound]
- CC50 at 5 days [1, 10]: > 15 µM
- EC50 [2]: 7.5 ± 2.59 µM
- EC50 [3]: 9.87 ± 2.47 µM
- EC50 [4]: 0.181 ± 0.067 µM
- EC50 [5]: 0.236 ± 0.114 µM
- EC50 [6]: > 15 µM
- EC50 [7]: 1.74 ± 0.879 µM
- EC50 [8]: 4.09 ± 3.71 µM
- EC50 [9]: 8.04 ± 1.68 µM

Compound: Cc1cc(C#N)cc(C)c1Oc1nc(Nc2ccc(NC(=O)CN(C)C(=O)OC(C)(C)C)cc2)nc2ccsc12 [5o]
- CC50 at 5 days ([1]; CC50): 5.84 ± 1.18 µM
- EC50 [5]: 0.863 ± 0.253 µM
- SI IIIB [5]: 7
